Test results published in US8076320B2, “Crystalline forms of a pharmaceutical compound” (Cephalon, Inc., priority 2004, dated 2011).
Blank lines part the entries; values can stand above or below the compound they belong to.

Assays:
Format in all cases: physicochemical
[1] = Suspension of excess solid Compound I in solvent on a rotarmix, solid form determined by powder X-ray diffraction; conditions: 4 days, room temperature; for solid form after storage as suspension in acetonitrile (ACN): excess solid in ACN; for solid form after storage as suspension in methanol: excess solid in methanol
[2] = Light exposure of the solid compound in a Heraeus Suntest CPS+; conditions: solid compound exposed to light for 14 h at 650W
Method: Experiments were carried out in a Heraeus Suntest CPS+ for the crystalline forms alpha, beta and gamma where the solid compound was exposed to light for 14 h at 650W.

[3] = Suspension of excess solid Compound I in solvent on a rotarmix, solid form determined by powder X-ray diffraction
Method: In the following examples are used excess of solid Compound I, i.e. compared to the solvent the amounts of solid Compound I is such that not all the solid material comes into solution. The amounts used varied between 25-50 mg solid Compound I and 2-5 ml solvent. In the present context by “solid Compound I” is meant amorphous Compound I or any of the crystalline forms of Compound I as indicated below. • (i) Excess of amorphous Compound I was added to methanol and the resulting suspension was stored on a rotarmix for 4 days at room temperature. […] After filtration the supernatant was left for evaporation of the solvent. […] Conclusion: […]

[4] = listed as crystalline gamma form of Compound I
[5] = listed as crystalline alpha form of Compound I
[6] = listed as crystalline beta form of Compound I

solid form after storage as suspension in acetonitrile (ACN) [1, 5]: the gamma form
solid form after storage as suspension in methanol [1, 5]: still the alpha form
SMILES: CCSCc1ccc2c(c1)c1c3c(c4c5cc(CSCC)ccc5n5c4c1n2[C@H]1C[C@](O)(C(=O)OC)[C@]5(C)O1)CNC3=O [alpha]

solid form after storage as suspension in acetonitrile (ACN) [1, 6]: the gamma form
solid form after storage as suspension in methanol [1, 6]: the alpha form
SMILES: CCSCc1ccc2c(c1)c1c3c(c4c5cc(CSCC)ccc5n5c4c1n2[C@H]1C[C@](O)(C(=O)OC)[C@]5(C)O1)CNC3=O [beta]

solid form obtained on evaporation of the filtered supernatant ([3]; methanol suspension after 4 days, filtration, supernatant left for evaporation of the solvent): the alpha form
SMILES: CCSCc1ccc2c(c1)c1c3c(c4c5cc(CSCC)ccc5n5c4c1n2[C@H]1C[C@](O)(C(=O)OC)[C@]5(C)O1)CNC3=O
solid form after storage as suspension in methanol ([3]; excess solid in methanol, rotarmix, 4 days, room temperature, powder X-ray diffraction): the major part of the solid was the gamma form

Further lines, the compound ahead of its results:

SMILES: CCSCc1ccc2c(c1)c1c3c(c4c5cc(CSCC)ccc5n5c4c1n2[C@H]1C[C@](O)(C(=O)OC)[C@]5(C)O1)CNC3=O [gamma]
solid form after storage as suspension in acetonitrile (ACN) [1, 4]: still the gamma form
solid form after storage as suspension in methanol [1, 4]: still the gamma form

SMILES: CCSCc1ccc2c(c1)c1c3c(c4c5cc(CSCC)ccc5n5c4c1n2[C@H]1C[C@](O)(C(=O)OC)[C@]5(C)O1)CNC3=O [amorphous substance]
degradation after light treatment [2]: ~60%
solid form after storage as suspension in acetonitrile (ACN) ([1]; listed as amorphous Compound I): the gamma form
solid form after storage as suspension in methanol ([1]; listed as amorphous Compound I): the alpha form
